For this experiment, the target named is T1, PTHR (Homo sapiens, UniProt Q03431).
T1 construct: expressed in transfected cells
T1 sequence (Q03431 27-593): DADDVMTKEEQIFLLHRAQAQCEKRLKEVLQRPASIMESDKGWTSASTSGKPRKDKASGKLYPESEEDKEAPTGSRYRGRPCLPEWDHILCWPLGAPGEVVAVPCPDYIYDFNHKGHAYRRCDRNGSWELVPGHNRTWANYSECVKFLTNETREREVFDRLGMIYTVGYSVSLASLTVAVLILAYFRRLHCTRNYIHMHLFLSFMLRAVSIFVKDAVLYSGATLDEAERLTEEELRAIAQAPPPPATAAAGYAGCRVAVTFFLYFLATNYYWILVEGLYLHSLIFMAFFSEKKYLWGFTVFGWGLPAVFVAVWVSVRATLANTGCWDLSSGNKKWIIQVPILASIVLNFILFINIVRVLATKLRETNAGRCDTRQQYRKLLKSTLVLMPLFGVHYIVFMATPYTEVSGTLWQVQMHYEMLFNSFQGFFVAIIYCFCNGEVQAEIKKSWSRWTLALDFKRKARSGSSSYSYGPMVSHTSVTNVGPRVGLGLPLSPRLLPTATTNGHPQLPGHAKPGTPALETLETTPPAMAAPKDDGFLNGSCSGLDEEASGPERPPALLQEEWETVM
Put plainly: cAMP induction potency, N-terminal modifications and cyclic constraints (Tables 9, 10, 13). It counts as cell-based.

Starred links: 1 amine or outer side, 2 acyl side, 3 side chain; linkers in the order of their positions; H or OH if unused. Non-standard residues stand in square brackets, D forms with d. Residues, ends and D or L forms follow the SMILES beside them. *: point of attachment. NH(1S,2S-2-CONH2-cPent) = NC(=O)[C@H]1CCC[C@@H]1N*; X12 = O=C([C@H]1CCC[C@@H]1N[*:1])[*:2]; X13 = O=C([C@H]1CNC[C@@H]1N[*:1])[*:2]; ACPC(1S,2S) = N[C@H]1CCC[C@@H]1C(=O)*; hArg = N=C(N)NCCCC[C@H](N)C(=O)O; β3hE = N[C@@H](CCC(=O)O)CC(=O)O; β3hD = NC(CC(=O)O)CC(=O)O; Aib = CC(C)(N)C(=O)O

Experimental: For cAMP dose-response assays, monolayers of confluent HEK 293 cells were pre-incubated with buffer containing d-luciferin (0.5 mM) in 96 well plates at room temperature until a stable baseline level of luminescence was established (30 min). Varying concentrations of agonist were then added, and the time course of luminescence response was recorded using a Perkin Elmer plate reader following α/β-peptide addition.

For the compound `CSCC[C@H](NC(=O)[C@H]1CCC[C@@H]1NC(=O)[C@H](CCC(N)=O)NC(=O)[C@H]1CCC[C@@H]1NC(=O)[C@H](CCC(=O)O)NC(=O)C(C)(C)NC(=O)[C@@H](NC(=O)[C@H]1CCC[C@@H]1N)C(C)C)C(=O)N[C@@H](Cc1c[nH]cn1)C(=O)N[C@@H](CCC(N)=O)C(=O)N[C@@H](CCCCNC(=N)N)C(=O)N[C@@H](C)C(=O)N[C@@H](CCCCN)C(=O)N[C@H]1CCC[C@@H]1C(=O)N[C@@H](CC(C)C)C(=O)N[C@@H](CC(N)=O)C(=O)N[C@@H](CO)C(=O)N[C@H]1CCC[C@@H]1C(=O)N[C@@H](CCCNC(=N)N)C(=O)N[C@@H](CCCNC(=N)N)C(=O)N[C@H](C(=O)N[C@@H](CCC(=O)O)CC(=O)N[C@@H](Cc1c[nH]c2ccccc12)C(=O)N[C@@H](CC(C)C)C(=O)N[C@@H](CCCNC(=N)N)C(=O)N[C@H]1CNC[C@@H]1C(=O)N[C@@H](CCCCN)C(=O)N[C@@H](CC(C)C)C(=O)N[C@@H](CCC(N)=O)C(=O)N[C@@H](CC(=O)O)CC(=O)N[C@H](C(=O)N[C@@H](Cc1c[nH]cn1)C(=O)N[C@@H](CC(N)=O)C(=O)N[C@H]1CCC[C@@H]1C(N)=O)C(C)C)C(C)C` [M-X1,5,7-CycD6, HXVUEXQXMHQ^hRAKXLNSXRRVEWLRZKLQDVHNX-NH2] ({ACPC(1S,2S)}-V[Aib]E[X12]Q[X12]MHQ[hArg]AK[X12]LNS[X12]RRV[β3hE]WLR[X13]KLQ[β3hD]VHN-{NH(1S,2S-2-CONH2-cPent)}; N-terminus assumed), for the setting “Table 10”, the “Fold PTH” value is given as 3.8.

For `CC[C@H](C)[C@H](NC(=O)[C@H](CCC(=O)O)NC(=O)C(C)(C)NC(=O)[C@@H](NC(=O)[C@H]1CCC[C@@H]1N)C(C)C)C(=O)N[C@@H](CCC(N)=O)C(=O)N[C@H]1CCC[C@@H]1C(=O)N[C@@H](CCSC)C(=O)N[C@@H](Cc1c[nH]cn1)C(=O)N[C@@H](CCC(N)=O)C(=O)N[C@@H](CCCCNC(=N)N)C(=O)N[C@@H](C)C(=O)N[C@@H](CCCCN)C(=O)N[C@H]1CCC[C@@H]1C(=O)N[C@@H](CC(C)C)C(=O)N[C@@H](CC(N)=O)C(=O)N[C@@H](CO)C(=O)N[C@H]1CCC[C@@H]1C(=O)N[C@@H](CCCNC(=N)N)C(=O)N[C@@H](CCCNC(=N)N)C(=O)N[C@H](C(=O)N[C@H]1CNC[C@@H]1C(=O)N[C@@H](Cc1c[nH]c2ccccc12)C(=O)N[C@@H](CC(C)C)C(=O)N[C@@H](CCCNC(=N)N)C(=O)N[C@H]1CNC[C@@H]1C(=O)N[C@@H](CCCCN)C(=O)N[C@@H](CC(C)C)C(=O)N[C@@H](CCC(N)=O)C(=O)N[C@H]1CCC[C@@H]1C(=O)N[C@H](C(=O)N[C@@H](Cc1c[nH]cn1)C(=O)N[C@@H](CC(N)=O)C(=O)N[C@H]1CCC[C@@H]1C(N)=O)C(C)C)C(C)C` [M-FcycD6_ACPC(1,7), XVUEIQXMHQ^hRAKXLNSXRRVZWLRZKLQXVHNX-NH2] ({ACPC(1S,2S)}-V[Aib]EIQ[X12]MHQ[hArg]AK[X12]LNS[X12]RRV[X13]WLR[X13]KLQ[X12]VHN-{NH(1S,2S-2-CONH2-cPent)}; N-terminus assumed), for the setting “Table 10”, the “Fold PTH” value is reported as 21.8.

For `CSCC[C@H](NC(=O)[C@H]1CCC[C@@H]1NC(=O)[C@H](CCC(N)=O)NC(=O)[C@H]1CCC[C@@H]1NC(=O)[C@H](CCC(=O)O)NC(=O)[C@H](CO)NC(=O)[C@@H](NC(=O)[C@H]1CCC[C@@H]1N)C(C)C)C(=O)N[C@@H](Cc1c[nH]cn1)C(=O)N[C@@H](CC(N)=O)C(=O)N[C@@H](CC(C)C)C(=O)NCC(=O)N[C@@H](CCCCN)C(=O)N[C@H]1CCC[C@@H]1C(=O)N[C@@H](CC(C)C)C(=O)N[C@@H](CC(N)=O)C(=O)N[C@@H](CO)C(=O)N[C@H]1CCC[C@@H]1C(=O)N[C@@H](CCC(=O)O)C(=O)N[C@@H](CCCNC(=N)N)C(=O)N[C@H](C(=O)N[C@@H](CCC(=O)O)CC(=O)N[C@@H](Cc1c[nH]c2ccccc12)C(=O)N[C@@H](CC(C)C)C(=O)N[C@@H](CCCNC(=N)N)C(=O)N[C@H]1CNC[C@@H]1C(=O)N[C@@H](CCCCN)C(=O)N[C@@H](CC(C)C)C(=O)N[C@@H](CCC(N)=O)C(=O)N[C@@H](CC(=O)O)CC(=O)N[C@H](C(=O)N[C@@H](Cc1c[nH]cn1)C(=O)N[C@@H](CC(N)=O)C(=O)N[C@H]1CCC[C@@H]1C(N)=O)C(C)C)C(C)C` [CycD6_ACPC(1,5,7), XVSEXQXMHNLGKXLNSXERVEWLRZKLQDVHNX-NH2] ({ACPC(1S,2S)}-VSE[X12]Q[X12]MHNLGK[X12]LNS[X12]ERV[β3hE]WLR[X13]KLQ[β3hD]VHN-{NH(1S,2S-2-CONH2-cPent)}; N-terminus assumed), the “Fold PTH” value (Table 9) was found to be 266.

Consider `CC[C@H](C)[C@H](NC(=O)[C@H](CCC(=O)O)NC(=O)[C@H](CO)NC(=O)[C@@H](NC(=O)[C@H]1CCC[C@@H]1N)C(C)C)C(=O)N[C@@H](CCC(N)=O)C(=O)N[C@H]1CCC[C@@H]1C(=O)N[C@@H](CCSC)C(=O)N[C@@H](Cc1c[nH]cn1)C(=O)N[C@@H](CC(N)=O)C(=O)N[C@@H](CC(C)C)C(=O)NCC(=O)N[C@@H](CCCCN)C(=O)N[C@H]1CCC[C@@H]1C(=O)N[C@@H](CC(C)C)C(=O)N[C@@H](CC(N)=O)C(=O)N[C@@H](CO)C(=O)N[C@H]1CCC[C@@H]1C(=O)N[C@@H](CCC(=O)O)C(=O)N[C@@H](CCCNC(=N)N)C(=O)N[C@H](C(=O)N[C@H]1CNC[C@@H]1C(=O)N[C@@H](Cc1c[nH]c2ccccc12)C(=O)N[C@@H](CC(C)C)C(=O)N[C@@H](CCCNC(=N)N)C(=O)N[C@H]1CNC[C@@H]1C(=O)N[C@@H](CCCCN)C(=O)N[C@@H](CC(C)C)C(=O)N[C@@H](CCC(N)=O)C(=O)N[C@H]1CCC[C@@H]1C(=O)N[C@H](C(=O)N[C@@H](Cc1c[nH]cn1)C(=O)N[C@@H](CC(N)=O)C(=O)N[C@H]1CCC[C@@H]1C(N)=O)C(C)C)C(C)C` [FcycD6_ACPC(1,7), XVSEIQXMHNLGKXLNSXERVZWLRZKLQXVHNX-NH2] ({ACPC(1S,2S)}-VSEIQ[X12]MHNLGK[X12]LNS[X12]ERV[X13]WLR[X13]KLQ[X12]VHN-{NH(1S,2S-2-CONH2-cPent)}; N-terminus assumed), for which the “Fold PTH” value (Table 9) came to 8.7.

Take `CC[C@H](C)[C@H](NC(=O)[C@H](CCC(=O)O)NC(=O)[C@H](CO)NC(=O)[C@@H](NC(=O)[C@@H](N)CO)C(C)C)C(=O)N[C@@H](CCC(N)=O)C(=O)N[C@@H](CC(C)C)C(=O)N[C@@H](CCSC)C(=O)N[C@@H](Cc1c[nH]cn1)C(=O)N[C@@H](CC(N)=O)C(=O)N[C@@H](CC(C)C)C(=O)NCC(=O)N[C@@H](CCCCN)C(=O)N[C@H]1CCC[C@@H]1C(=O)N[C@@H](CC(C)C)C(=O)N[C@@H](CC(N)=O)C(=O)N[C@@H](CO)C(=O)N[C@H]1CCC[C@@H]1C(=O)N[C@@H](CCC(=O)O)C(=O)N[C@@H](CCCNC(=N)N)C(=O)N[C@H](C(=O)N[C@@H](CCC(=O)O)CC(=O)N[C@@H](Cc1c[nH]c2ccccc12)C(=O)N[C@@H](CC(C)C)C(=O)N[C@@H](CCCNC(=N)N)C(=O)N[C@H]1CNC[C@@H]1C(=O)N[C@@H](CCCCN)C(=O)N[C@@H](CC(C)C)C(=O)N[C@@H](CCC(N)=O)C(=O)N[C@@H](CC(=O)O)CC(=O)N[C@H](C(=O)N[C@@H](Cc1c[nH]cn1)C(=O)N[C@@H](CC(N)=O)C(=O)N[C@H]1CCC[C@@H]1C(N)=O)C(C)C)C(C)C` [cycD6, SVSEIQLMHNLGKXLNSXERVEWLRZKLQDVHNX-NH2] (H-SVSEIQLMHNLGK[X12]LNS[X12]ERV[β3hE]WLR[X13]KLQ[β3hD]VHN-{NH(1S,2S-2-CONH2-cPent)}; N-terminus assumed): the “Fold PTH” value (Table 9) is given as 1.3. Moreover, the EC50 (Table 9, read-out: EC50, nM (cAMP induction potency)) turned out to be 0.1 ± 0.01 nM.

Regarding `CC[C@H](C)[C@H](NC(=O)[C@H](CCC(=O)O)NC(=O)[C@H](CO)NC(=O)[C@@H](NC(=O)[C@H]1CCC[C@@H]1N)C(C)C)C(=O)N[C@@H](CCC(N)=O)C(=O)N[C@H]1CCC[C@@H]1C(=O)N[C@@H](CCSC)C(=O)N[C@@H](Cc1c[nH]cn1)C(=O)N[C@@H](CC(N)=O)C(=O)N[C@@H](CC(C)C)C(=O)NCC(=O)N[C@@H](CCCCN)C(=O)N[C@H]1CCC[C@@H]1C(=O)N[C@@H](CC(C)C)C(=O)N[C@@H](CC(N)=O)C(=O)N[C@@H](CO)C(=O)N[C@H]1CCC[C@@H]1C(=O)N[C@@H](CCC(=O)O)C(=O)N[C@@H](CCCNC(=N)N)C(=O)N[C@H](C(=O)N[C@@H](CCC(=O)O)CC(=O)N[C@@H](Cc1c[nH]c2ccccc12)C(=O)N[C@@H](CC(C)C)C(=O)N[C@@H](CCCNC(=N)N)C(=O)N[C@H]1CNC[C@@H]1C(=O)N[C@@H](CCCCN)C(=O)N[C@@H](CC(C)C)C(=O)N[C@@H](CCC(N)=O)C(=O)N[C@@H](CC(=O)O)CC(=O)N[C@H](C(=O)N[C@@H](Cc1c[nH]cn1)C(=O)N[C@@H](CC(N)=O)C(=O)N[C@H]1CCC[C@@H]1C(N)=O)C(C)C)C(C)C` [CycD6_ACPC(1,7), XVSEIQXMHNLGKXLNSXERVEWLRZKLQDVHNX-NH2] ({ACPC(1S,2S)}-VSEIQ[X12]MHNLGK[X12]LNS[X12]ERV[β3hE]WLR[X13]KLQ[β3hD]VHN-{NH(1S,2S-2-CONH2-cPent)}; N-terminus assumed), the “Fold PTH” value (Table 9) worked out at 7.3.

In the case of “XVSEIQXMHNLGKWLNSMERVEWLRKKLQDVHNF-NH2 [D6_ACPC(1,7)]”, under “Table 9”, the “Fold PTH” value was found to be 22.6.
